In patent US7790895B2, “Quinoline derivatives as potassium ion channel openers” (Janssen Pharmaceutica NV, priority 2005, dated 2010):

Biological target: T1, KATP channels (Homo sapiens, UniProt O60706)
T1 construct: TE671 human medulloblastoma cells were obtained from ATCC; host or cells: TE671 human medulloblastoma cells
Assay: Potassium Channel Assay (FLIPR membrane potential, KATP channel opening)
Assay type: cell-based
Conditions: TE671 human medulloblastoma cells, Membrane Potential Assay Dye, room temperature
Protocol: TE671 human medulloblastoma cells were obtained from ATCC and grown in Dulbecco's modified Eagle's medium (DMEM) supplemented with 10% fetal bovine serum, 100 U/ml penicillin and 100 U/ml streptomycine.
The day before testing, the cells were plated in black 96-well plates at 50K/well. On the day of testing, the growth media was removed, then 100 μl of FLIPR buffer (20 mM HEPES, 120 mM NaCl, 2 mM KCl, 2 mM CaCl2, 1 mM MgCl2, 5 mM Glucose) and 100 μl of Membrane Potential Assay Dye (Molecular Devices) dissolved in FLIPR buffer were added to each well. The cells were incubated at room temperature for 15 to 30 min.
The effect of test compounds on KATP channels were evaluated on a fluorometric imaging plate reader (FLIPR, Molecular Devices) at room temperature. After a baseline period, 50 μl of 5× stock solution of test compound prepared in FLIPR buffer was added and fluorescence change was monitored for 3 minutes. After this reading, glyburide, a KATP channel blocker, was added to a final concentration of 5 μM to check the specificity of the test compound as a KATP channel opener. Hyperpolarization resulting from KATP channel opening was observed as a decrease in fluorescence intensity.

T1 sequence (O60706 1-1549 isoform O60706-2): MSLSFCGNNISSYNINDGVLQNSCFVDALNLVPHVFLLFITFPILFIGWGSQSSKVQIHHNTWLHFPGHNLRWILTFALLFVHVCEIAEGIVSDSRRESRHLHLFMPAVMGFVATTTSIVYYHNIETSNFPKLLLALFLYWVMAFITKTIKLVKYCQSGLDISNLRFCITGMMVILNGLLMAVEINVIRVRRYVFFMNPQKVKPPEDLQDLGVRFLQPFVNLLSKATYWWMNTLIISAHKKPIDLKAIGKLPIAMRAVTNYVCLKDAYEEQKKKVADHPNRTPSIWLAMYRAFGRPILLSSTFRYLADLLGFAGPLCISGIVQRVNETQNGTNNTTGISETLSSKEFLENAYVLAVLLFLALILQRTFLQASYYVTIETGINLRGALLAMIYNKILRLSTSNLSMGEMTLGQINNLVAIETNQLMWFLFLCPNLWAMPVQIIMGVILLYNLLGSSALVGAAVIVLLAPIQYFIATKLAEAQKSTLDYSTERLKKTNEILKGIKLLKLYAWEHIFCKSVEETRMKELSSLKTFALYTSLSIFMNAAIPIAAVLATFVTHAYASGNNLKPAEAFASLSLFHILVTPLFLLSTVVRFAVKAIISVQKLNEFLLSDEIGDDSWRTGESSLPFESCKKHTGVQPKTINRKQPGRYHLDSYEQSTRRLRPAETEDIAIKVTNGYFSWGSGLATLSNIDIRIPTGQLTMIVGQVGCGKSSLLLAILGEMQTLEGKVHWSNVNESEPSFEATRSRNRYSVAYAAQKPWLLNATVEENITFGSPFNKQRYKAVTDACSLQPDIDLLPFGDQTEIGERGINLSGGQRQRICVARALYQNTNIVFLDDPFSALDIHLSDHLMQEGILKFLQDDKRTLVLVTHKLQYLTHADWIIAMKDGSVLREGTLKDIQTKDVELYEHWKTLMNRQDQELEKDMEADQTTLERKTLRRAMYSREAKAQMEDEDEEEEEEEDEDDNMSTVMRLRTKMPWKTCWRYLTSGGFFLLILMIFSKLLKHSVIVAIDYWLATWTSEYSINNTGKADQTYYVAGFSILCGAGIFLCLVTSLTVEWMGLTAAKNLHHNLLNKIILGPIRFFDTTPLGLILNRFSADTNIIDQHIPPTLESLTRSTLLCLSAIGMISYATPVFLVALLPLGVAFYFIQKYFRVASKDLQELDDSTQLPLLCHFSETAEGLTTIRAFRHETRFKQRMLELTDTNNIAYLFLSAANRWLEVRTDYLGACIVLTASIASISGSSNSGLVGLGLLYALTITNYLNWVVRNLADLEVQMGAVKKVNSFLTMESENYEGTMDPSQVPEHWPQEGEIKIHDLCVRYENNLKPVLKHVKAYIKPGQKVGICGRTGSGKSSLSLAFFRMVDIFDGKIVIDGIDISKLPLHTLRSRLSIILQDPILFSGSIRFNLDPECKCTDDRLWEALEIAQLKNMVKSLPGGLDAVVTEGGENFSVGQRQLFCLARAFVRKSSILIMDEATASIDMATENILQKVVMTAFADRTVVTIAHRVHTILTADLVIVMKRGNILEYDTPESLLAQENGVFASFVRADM
T1 sequence (Q14654 whole entry partner): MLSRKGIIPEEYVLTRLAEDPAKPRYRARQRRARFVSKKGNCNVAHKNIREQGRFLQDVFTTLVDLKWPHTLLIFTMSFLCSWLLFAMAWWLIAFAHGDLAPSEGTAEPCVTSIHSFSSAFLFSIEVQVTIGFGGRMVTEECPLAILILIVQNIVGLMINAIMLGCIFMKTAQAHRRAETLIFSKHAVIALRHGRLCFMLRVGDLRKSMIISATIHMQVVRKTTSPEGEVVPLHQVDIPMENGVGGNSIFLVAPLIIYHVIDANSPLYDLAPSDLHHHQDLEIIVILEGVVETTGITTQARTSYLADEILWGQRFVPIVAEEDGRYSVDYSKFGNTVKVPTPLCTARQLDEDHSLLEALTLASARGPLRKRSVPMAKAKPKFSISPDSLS

SMILES | EC50 | % Stimulation (test concentration not given)
N#Cc1cccc(-c2ccncc2CO)c1 [Compound 50, 3-(3-Hydroxymethyl-pyridin-4-yl)-benzonitrile] | > 30 µM | –
N#Cc1cccc(-c2ccncc2C=O)c1 [Compound 51, 3-(3-Formyl-pyridin-4-yl)-benzonitrile] | > 30 µM | –
CC(O)c1cnccc1-c1cccc(C#N)c1 (stereo not shown) [Compound 52, 3-[3-(1-Hydroxy-ethyl)-pyridin-4-yl]-benzonitrile] | 17.2 µM | –
COc1ccc(C=O)cc1-c1ccncc1C=O [Compound 53, 4-(5-Formyl-2-methoxy-phenyl)-pyridine-3-carbaldehyde] | > 30 µM | 30%
N#Cc1cccc(C2OC(O)c3cnccc32)c1 (stereo not shown) [Compound 55, 3-(3-Hydroxy-1,3-dihydro-furo[3,4-c]pyridin-1-yl)-benzonitrile] | > 30 µM | –
OCc1cnccc1C(O)c1ccccc1 (stereo not shown) [Compound 56, (3-Hydroxymethyl-pyridin-4-yl)-phenyl-methanol] | > 30 µM | –
N#Cc1cccc(C(O)c2ccncc2CO)c1 (stereo not shown) [Compound 57, 3-[Hydroxy-(3-hydroxymethyl-pyridin-4-yl)-methyl]-benzonitrile] | > 30 µM | –
COc1ccc(CO)cc1-c1ccncc1CO [Compound 58] | > 30 µM | –
CC(O)c1cnccc1C(=O)c1ccccc1 (stereo not shown) [Compound 59, [3-(1-Hydroxy-ethyl)-pyridin-4-yl]-phenyl-methanone] | 26.8 µM | –
CC(C)C(O)c1cnccc1Br (stereo not shown) [Compound 63, 1-(4-Bromo-pyridin-3-yl)-2-methyl-propan-1-ol] | 7.97 µM | –
OC1OC(c2ccccc2)c2ccncc21 (stereo not shown) [Compound 65, 1-Phenyl-1,3-dihydro-furo[3,4-c]pyridin-3-ol] | > 30 µM | –
N#Cc1cccc(C2OCc3cnccc32)c1 (stereo not shown) [Compound 66, 3-(1,3-Dihydro-furo[3,4-c]pyridin-1-yl)-benzonitrile] | 8.19 µM | –
